Like-named read-outs stand apart in the source and are kept apart here.
Tests used:
[1] = molecular target: T1, GST-LXRβ ligand-binding domain (Homo sapiens, UniProt P55055); test: TR-FRETβ activity assay (NCoA3 coactivator peptide recruitment); type: biochemical; conditions: 1 μM 24(S)-25-epoxycholesterol prestimulation
T1 construct: amino acids 156-461; NP009052; made in house; host or cells: E. coli
T1 sequence (P55055 156-460 limits assumed): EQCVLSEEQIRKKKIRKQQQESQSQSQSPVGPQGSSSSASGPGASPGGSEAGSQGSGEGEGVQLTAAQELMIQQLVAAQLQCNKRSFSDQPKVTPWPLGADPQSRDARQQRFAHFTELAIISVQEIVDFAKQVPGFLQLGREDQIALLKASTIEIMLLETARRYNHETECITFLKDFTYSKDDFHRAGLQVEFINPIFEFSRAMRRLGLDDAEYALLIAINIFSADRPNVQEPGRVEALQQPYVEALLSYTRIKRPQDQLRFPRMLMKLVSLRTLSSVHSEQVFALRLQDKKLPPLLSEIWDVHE
Outline: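 E. coli-expressed GST-LXRβ LBD (aa 156-461, 76 nM) with biotinylated NCoA3 peptide (400 nM) in Tris/HCl pH 6.8 containing 1 μM 24(S)-25-epoxycholesterol agonist. Compounds tested at 50 μM down to 0.002 μM in triplicate. TR-FRET (Tb cryptate/XL665, ex 340, em 615/665 nm) read after 1 h at 4° C.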

LXRβ [2] = molecular target: T2, LXRβ (Homo sapiens, UniProt P55055); test: LXR Gal4 reporter transient transfection assay (mammalian two-hybrid, HEK293), LXRβ; type: cell-based; conditions: ligand-binding domain (LBD) of LXRβ, HEK293; read-out: LBD-M2H Gal4β
T2 construct: LXRβ (amino acids 156-461); expressed in transfected cells; host or cells: HEK293
T2 sequence (P55055 156-460): T1 sequence (P55055 156-460 limits assumed)
Method: LXRα and LXRβ activity status was determined via detection of interaction with coactivator and corepressor proteins in mammalian two-hybrid experiments (M2H). For this, via transient transfection the full length (FL) proteins of LXRα (amino acids 1-447; NP005684; SEQ ID NO:1) or LXRβ-(amino acids 1-461; NP009052; SEQ ID NO:2) or the ligand-binding domains (LBD) of LXRα (amino acids 155-447 SEQ ID NO:3) or LXRβ (amino acids 156-461; SEQ ID NO:4) were expressed from pCMV-AD (Stratagene) as fusions to the transcriptional activation domain of NFkB. As cofactors, domains of either the steroid receptor coactivator 1 (SRC1; amino acids 552-887; SEQ ID NO:5) or of the corepressor NCoR (amino acids 1906-2312; NP006302; SEQ ID NO:6) were expressed as fusions to the DNA binding domain of the yeast transcription factor GAL4 (from pCMV-BD; Stratagene). Interaction was monitored via activation of a coexpressed Firefly Luciferase Reporter gene under control of a promoter containing repetitive GAL4 response elements (vector pFRLuc; Stratagene). Transfection efficiency was controlled via cotransfection of constitutively active pRL-CMV Renilla reniformis luciferase reporter (Promega). HEK293 cells were grown in minimum essential medium (MEM) with 2 mM L-glutamine and Earle's balanced salt solution supplemented with 8.3% fetal bovine serum, 0.1 mM non-essential amino acids, 1 mM sodium pyruvate, at 37° C. in 5% CO2. 3.5×10^4 cells/well were plated in 96-well cell culture plates in growth medium supplemented with 8.3% fetal bovine serum for 16-20 h to ˜90% confluency. For transfection, medium was taken off and LXR and cofactor expressing plasmids as well as the reporter plasmids are added in 30 μL OPTIMEM/well including polyethylene-imine (PEI) as vehicle. Typical amounts of plasmids transfected/well: pCMV-AD-LXR (5 ng), pCMV-BD-cofactor (5 ng), pFR-Luc (100 ng), pRL-CMV (0.5 ng). Compound stocks were prepared in DMSO, prediluted in MEM to a total volume of 120 μL, and added 4 h after addition of the transfection mixture (final vehicle concentration not exceeding 0.2%). Cells were incubated for additional 16 h, lysed for 10 min in 1×Passive Lysis Buffer (Promega) and Firefly and Renilla luciferase activities were measured sequentially in the same cell extract using buffers containing D-luciferine and coelenterazine, respectively. Measurements of luminescence were done in a BMG-luminometer.
The potencies of Compound 21/3 and its analog, Compound pre-6/3, against LXRα and LXRβ were evaluated in biochemical binding assays, cellular mammalian two-hybrid (M2H) interaction assays evaluating nuclear receptor co-repressor (NCOR) recruitment, and cellular reporter assays evaluating transcriptional activity (Table 5).

LXRβ [3] = molecular target: T3, LXRβ (Homo sapiens, UniProt P55055); test: as above; type: cell-based; set-up: LXRβ (amino acids 156-461); expressed in transfected cells; host or cells: HEK293; conditions: full length (FL) LXRβ, HEK293; read-out: FL-M2H Gal4β
T3 sequence (P55055 1-460): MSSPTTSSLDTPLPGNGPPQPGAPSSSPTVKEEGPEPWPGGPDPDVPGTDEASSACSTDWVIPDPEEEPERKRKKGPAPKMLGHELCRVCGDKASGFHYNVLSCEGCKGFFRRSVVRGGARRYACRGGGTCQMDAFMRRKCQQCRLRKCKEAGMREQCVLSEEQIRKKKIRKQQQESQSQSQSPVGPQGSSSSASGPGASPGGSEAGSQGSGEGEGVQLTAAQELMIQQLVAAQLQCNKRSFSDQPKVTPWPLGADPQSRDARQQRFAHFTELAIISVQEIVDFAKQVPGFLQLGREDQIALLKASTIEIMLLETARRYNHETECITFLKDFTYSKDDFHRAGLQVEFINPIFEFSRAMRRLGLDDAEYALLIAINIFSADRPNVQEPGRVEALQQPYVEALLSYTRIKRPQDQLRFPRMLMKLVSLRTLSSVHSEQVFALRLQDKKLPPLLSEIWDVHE
Outline: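 HEK293 cells transiently co-transfected with full-length or LBD LXRα/LXRβ fused to NFkB activation domain, GAL4-DBD-fused SRC1 or NCoR cofactor domain, GAL4-responsive firefly luciferase reporter and Renilla control. Compound added 4 h post-transfection (≤0.2% DMSO), incubated 16 h; firefly and Renilla luminescence read sequentially.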

Row | SMILES | EC50 [1] | EC50 (LXRβ [2]) | EC50 (LXRβ [3])
1 | N#Cc1sccc1-c1c(-c2cccc(CCCC(=O)O)c2)n(S(=O)(=O)c2ccc(Cl)cc2)c2ccccc12 [30/5] | 1000 to 10000 nM | < 100 nM | 
2 | N#Cc1nccnc1-c1c(-c2cccs2)n(S(=O)(=O)c2ccc(Cl)cc2)c2ccccc12 [20/7] | 1000 to 10000 nM | < 100 nM | 
3 | COc1ccc(S(=O)(=O)n2c(-c3ccccc3)c(-c3ccsc3OC)c3ccccc32)cc1 [20/22] | 100 to 1000 nM | 100 to 1000 nM | 
4 | COc1ccc(S(=O)(=O)n2c(-c3ccccc3)c(-c3cc4ccccc4nc3C#N)c3ccccc32)cc1 [20/17] |  | 100 to 1000 nM | 
5 | Cc1ccc(S(=O)(=O)n2c(-c3cccc(C4CC4C(=O)O)c3)c(-c3ccc(F)cc3C#N)c3ccccc32)cc1 (stereo not drawn) [30/15] | 1000 to 10000 nM | 100 to 1000 nM | 
6 | N#Cc1cscc1-c1c(-c2cccs2)n(S(=O)(=O)c2ccc(Cl)cc2)c2ccccc12 [20/4] | 1000 to 10000 nM | < 100 nM | 
7 | N#Cc1sccc1-c1c(-c2ccc(F)cc2)n(S(=O)(=O)c2ccc(Cl)cc2)c2ccccc12 [26/1] | 1000 to 10000 nM | < 100 nM | 
8 | Cc1ccc(S(=O)(=O)n2c(-c3ccc(/C=C/C(=O)O)s3)c(-c3ccsc3C#N)c3ccccc32)cc1 [3/19] | 1000 to 10000 nM | 100 to 1000 nM | 
9 | N#Cc1sccc1-c1c(-c2ccccc2)n(S(=O)(=O)c2cccnc2)c2ccccc12 [1/41] | 1000 to 10000 nM | < 100 nM | 
10 | N#Cc1sccc1-c1c(-c2cccc(N3CC(C(=O)O)C3)n2)n(S(=O)(=O)c2ccc(Cl)cc2)c2ccccc12 [30/6] | 1000 to 10000 nM | 100 to 1000 nM | 
11 | COc1ccc(S(=O)(=O)n2c(-c3ccccc3)c(-c3cc(C)sc3C#N)c3ccccc32)cc1 [20/23] | 1000 to 10000 nM | 100 to 1000 nM | 
12 | Cc1ccc(S(=O)(=O)n2c(-c3ccsc3)c(-c3ccsc3C#N)c3ccccc32)cc1 [1/23] | 100 to 1000 nM | < 100 nM | 
13 | NC(=O)c1sccc1-c1c(-c2cccs2)n(S(=O)(=O)c2ccc(Cl)cc2)c2ccccc12 [Compound 22] | 1000 to 10000 nM | 100 to 1000 nM | 
14 | Cc1cc(C)c(S(=O)(=O)n2c(-c3cccs3)c(-c3ccsc3C#N)c3ccccc32)c(C)c1 [1/26] | 1000 to 10000 nM | < 100 nM | 
15 | N#Cc1sccc1-c1c(-c2ccc(C3CC3C(=O)O)s2)n(S(=O)(=O)c2ccc(Cl)cc2)c2ccccc12 (stereo not drawn) [30/8] | 1000 to 10000 nM | 100 to 1000 nM | 
16 | O=S(=O)(c1ccc(Cl)cc1)n1c(-c2cccs2)c(-c2ccsc2C(F)F)c2ccccc21 [20/3] | 100 to 1000 nM | < 100 nM | 
17 | COc1ccc(S(=O)(=O)n2c(-c3ccccc3)c(-c3c(C#N)sc4ccccc34)c3ccccc32)cc1 [20/18] |  | < 100 nM | 
18 | Cc1ccc(S(=O)(=O)n2c(-c3cccc(-c4cncc(C(C)(C)C(=O)O)c4)c3)c(-c3ccsc3C#N)c3ccccc32)cc1 [30/3] |  | 100 to 1000 nM | 

Row | SMILES | EC50 [1] | EC50 (LXRβ [2]) | EC50 (LXRβ [3])
19 | Cc1ccc(S(=O)(=O)n2c(-c3cccc(-c4cc(C(=O)O)nn4C(C)C)c3)c(-c3ccsc3C#N)c3cc(F)ccc32)cc1 [12/8] | 1000 to 10000 nM |  | 100 to 1000 nM
20 | N#CC1=C(c2c(-c3cccc(-c4ccc(C(=O)O)cc4Cl)c3)n(S(=O)(=O)c3ccc(C(F)F)cc3)c3ccc(F)cc23)CCCC1 [11/42] | > 10000 nM |  | 100 to 1000 nM
21 | CC(C)(O)c1ccc(S(=O)(=O)n2c(-c3cccc(-c4ccc(C(=O)O)cc4Cl)c3)c(-c3ccccc3C#N)c3cc(F)ccc32)cc1 [30/16] | 1000 to 10000 nM |  | 100 to 1000 nM
22 | N#Cc1cccc(F)c1-c1c(-c2cccc(-c3ccc(C(=O)O)cc3Cl)c2)n(S(=O)(=O)c2ccc(C(F)F)cc2)c2ccc(F)cc12 [11/34] | < 100 nM |  | < 100 nM
23 | N#Cc1cncc(C#N)c1-c1c(-c2cccc(-c3ccc(C(=O)O)cc3Cl)c2)n(S(=O)(=O)c2ccc(C(F)F)cc2)c2ccc(F)cc12 [11/67] | 100 to 1000 nM |  | < 100 nM
24 | COc1cccc(-c2c(-c3cccc(-c4ccc(C(=O)O)cc4Cl)c3)n(S(=O)(=O)c3ccc(C)cc3)c3ccc(F)cc23)c1C#N [11/3] | < 100 nM |  | < 100 nM
25 | N#Cc1ccccc1-c1c(-c2cccc(-c3ccc(C(=O)O)cc3F)c2)n(S(=O)(=O)c2ccc(C(F)F)cc2)c2ccc(F)cc12 [11/31] | < 100 nM |  | < 100 nM
26 | Cc1ccc(S(=O)(=O)n2c(-c3cccc(N4CC(C(=O)O)C4)c3)c(-c3ccsc3C#N)c3cc(C#N)ccc32)cc1 [3/45] | 1000 to 10000 nM |  | 100 to 1000 nM
27 | Cc1ccc(S(=O)(=O)n2c(-c3cccc(N4CC(C(=O)O)C4)c3)c(-c3ccsc3C#N)c3cc(F)ccc32)cc1 [3/32] | 100 to 1000 nM |  | < 100 nM
28 | Cc1ccc(S(=O)(=O)n2c(-c3cccc(-c4ccc(CO)c(S(=O)(=O)CC(=O)O)c4)c3)c(-c3ccsc3C#N)c3ccccc32)cc1 [5/1] | 100 to 1000 nM |  | 100 to 1000 nM
29 | Cc1ccc(S(=O)(=O)n2c(-c3cccc(-n4ccc(C(=O)O)cc4=O)c3)c(-c3ccsc3C#N)c3cc(F)ccc32)cc1 [5/5] | 100 to 1000 nM |  | 100 to 1000 nM
30 | Cc1ccc(S(=O)(=O)n2c(-c3cccc(-c4ccc(C(=O)NS(C)(=O)=O)cc4Cl)c3)c(-c3ccsc3C#N)c3cc(F)ccc32)cc1 [32/4] | < 100 nM |  | < 100 nM
31 | Cc1ccc(S(=O)(=O)n2c(-c3cccc(-c4ccc(C(=O)O)cc4Cl)c3)c(-c3cccc(F)c3C#N)c3cc(F)ccc32)cc1 [11/1] | < 100 nM |  | < 100 nM
32 | N#Cc1ccncc1-c1c(-c2cccc(-c3cc(F)c(C(=O)O)cc3Cl)c2)n(S(=O)(=O)c2ccc(C(F)F)cc2)c2ccc(F)cc12 [11/10] | < 100 nM |  | < 100 nM
33 | N#Cc1sccc1-c1c(-c2cccc(N3CCC(C(=O)O)CC3)c2)n(S(=O)(=O)c2ccc(C(F)F)cc2)c2ccc(F)cc12 [3/60] | 100 to 1000 nM |  | < 100 nM
34 | N#Cc1sccc1-c1c(-c2cccc(N3CC(C(=O)O)C3)c2)n(S(=O)(=O)c2ccc(C(F)F)cc2)c2ccc(F)cc12 [3/35] | 100 to 1000 nM |  | < 100 nM
35 | Cc1ccc(S(=O)(=O)n2c(-c3cccc(-c4ccc(CN)cc4Cl)c3)c(-c3ccsc3C#N)c3cc(F)ccc32)cc1 [2/1] | 100 to 1000 nM |  | 100 to 1000 nM
36 | CC1(C)CCN(S(=O)(=O)n2c(-c3cccc(-c4ccc(C(=O)O)cc4)c3)c(-c3ccsc3C#N)c3ccccc32)CC1 [3/66] | 1000 to 10000 nM |  | 100 to 1000 nM

— patent US20260083704A1, “LXR MODULATORS WITH BICYCLIC CORE MOIETY FOR TREATING DYSLIPIDEMIAS” (OrsoBio, Inc., priority 2022, published 2026)
